Assay results from patent publication US11873287B2, “Piperidine-2,6-dione derivatives and ulcerative colitis treating” (TIANJIN HEMAY PHARMACEUTICAL SCI-TECH CO., LTD, priority 2016, dated 2024).

What was measured:
[1] = test system: DSS-Induced inflammatory Bowel Disease Models in Mice; experiment: DSS-induced inflammatory bowel disease model in mice (Biological Example 4, 1.3% DSS); format: in vivo, C57BL/6 mice; conditions: 30 mg/Kg i.g. Q.D; for Average Length of Colon (Mean ± SD) / Inhibitory Rate of Colonic Reduction: 1.3% DSS days 0-5
Experimental: 40 healthy female C57BL/6 mice having weight of 16-19 g were randomly divided into 4 groups in accordance with weight. There were 10 mice in each group (see Table 6 below). The first day of the experiment was recorded as Day 0. The administration regimen and induction regimen were detailed in Table 6. The change in weight of experimental animals was recorded every day. […] Samples of animal colonic tissues were obtained to measure the length. One-way ANOVA analysis of mice weights was performed by SPSS22. Statistical analyses between groups were performed. Mann-Whitney U non-parametric test was performed on the length of colon.
The experimental method used in the present biological example is identical to those in Biological Example 3.
Calculation Formula of Inhibitory Rate of Colonic Reduction: (Length of Colon in Administration Group−Length of Colon in Model Group)/(Length of Colon in Blank Group−Length of Colon in Model Group)

ICR mice = experiment: Acute toxicity experiment of single oral administration in mice; format: in vivo
Experimental: The mice were fasted one day before the experiment. On the day of the experiment, 6 mice (ICR mice, body weight of 19-21 g, three females and three males) were selected in each experiment group. First of all, one female and one male were selected to orally give 1000 mg/Kg, and observed for 5-10 minutes. If there were no obvious side effects, the remaining 4 animals were orally given the same dose, and observed for 10-15 minutes. If no animal died, the animals were placed in a box to balancedly feed for 7 days. The state was observed and the body weight was recorded daily.
Observation Indexes within 0-15 Minutes After Administration
Activity: restlessness, hyperactivity
Nervous system response: tremor, spasm, convulsion, ataxia, posture abnormality, etc.
Autonomic nerve: exophthalmos, salivation, tears, urination (hematuria), diarrhea, piloerection, breathing, etc.
Observation Indexes Over 7 Days
State of Animal: lethargy, hyperactivity, excitement, hair loss, diarrhea, abnormal behavior, death, etc.

[2] = Day 1, 1000 mg/Kg single oral dose
[3] = Day 2, 1000 mg/Kg single oral dose
[4] = Day 3, 1000 mg/Kg single oral dose
[5] = Day 4, 1000 mg/Kg single oral dose
[6] = Day 5, 1000 mg/Kg single oral dose
[7] = Day 6, 1000 mg/Kg single oral dose
[8] = Day 7, 1000 mg/Kg single oral dose
[9] = Female, 1000 mg/Kg single oral dose
[10] = Male, 1000 mg/Kg single oral dose

Row | SMILES | Average Length of Colon (Mean ± SD) [1] | Inhibitory Rate of Colonic Reduction [1] | Weights of Experimental Mice (Mean ± SD) ([1]; Day 0) | Weights of Experimental Mice (Mean ± SD) ([1]; Day 1) | Weights of Experimental Mice (Mean ± SD) ([1]; Day 2) | Weights of Experimental Mice (Mean ± SD) ([1]; Day 3) | Daily Body Weight of Tested Female Mice (Mean ± SD) (ICR mice; [2]) | Daily Body Weight of Tested Male Mice (Mean ± SD) (ICR mice; [2]) | Daily Body Weight of Tested Female Mice (Mean ± SD) (ICR mice; [3]) | Daily Body Weight of Tested Male Mice (Mean ± SD) (ICR mice; [3]) | Daily Body Weight of Tested Female Mice (Mean ± SD) (ICR mice; [4]) | Daily Body Weight of Tested Male Mice (Mean ± SD) (ICR mice; [4]) | Daily Body Weight of Tested Female Mice (Mean ± SD) (ICR mice; [5]) | Daily Body Weight of Tested Male Mice (Mean ± SD) (ICR mice; [5]) | Daily Body Weight of Tested Female Mice (Mean ± SD) (ICR mice; [6]) | Daily Body Weight of Tested Male Mice (Mean ± SD) (ICR mice; [6]) | Daily Body Weight of Tested Female Mice (Mean ± SD) (ICR mice; [7]) | Daily Body Weight of Tested Male Mice (Mean ± SD) (ICR mice; [7]) | Daily Body Weight of Tested Female Mice (Mean ± SD) (ICR mice; [8]) | Daily Body Weight of Tested Male Mice (Mean ± SD) (ICR mice; [8]) | further results
1 | COCCCN1C(=O)CCC(N2C(=O)c3cccc(NC(C)=O)c3C2=O)C1=O (stereo not drawn) [Example 16, 4-acetylamino-2-(1-(3-methoxypropyl)-2,6-dioxopiperidin-3-yl)isoindolin-1,3-dione] | 7.0 ± 0.4 cm | 73.3% | 19.8 ± 0.6 g | 19.9 ± 0.4 g | 19.7 ± 0.4 g | 19.9 ± 0.6 g | – | – | – | – | – | – | – | – | – | – | – | – | – | – | Weights of Experimental Mice (Mean ± SD) ([1]; Day 4): 19.7 ± 0.5 g; Weights of Experimental Mice (Mean ± SD) ([1]; Day 5): 19.6 ± 0.5 g; Weights of Experimental Mice (Mean ± SD) ([1]; Day 6): 19.3 ± 0.7 g; Weights of Experimental Mice (Mean ± SD) ([1]; Day 7): 19.0 ± 1.0 g; Weights of Experimental Mice (Mean ± SD) ([1]; Day 8): 18.9 ± 1.2 g; Weights of Experimental Mice (Mean ± SD) ([1]; Day 9): 18.9 ± 1.1 g
2 | CCOCCN1C(=O)CCC(N2C(=O)c3cccc(N)c3C2=O)C1=O (stereo not drawn) [Example 19, 4-amino-2-(1-(2-ethoxyethyl)-2,6-dioxopiperidin-3-yl)isoindolin-1,3-dione] | 6.9 ± 0.4 cm | 66.7% | 19.6 ± 0.7 g | 19.6 ± 0.8 g | 19.7 ± 0.7 g | 19.9 ± 0.7 g | 18.0 ± 0.6 g | 18.9 ± 1.2 g | 20.7 ± 1.1 g | 20.7 ± 1.1 g | 21.3 ± 0.6 g | 21.3 ± 0.6 g | 22.8 ± 0.3 g | 25.0 ± 2.0 g | 23.2 ± 0.7 g | 24.8 ± 1.9 g | 23.3 ± 1.2 g | 26.5 ± 1.9 g | 23.0 ± 1.7 g | 27.7 ± 2.2 g | Summary of toxic response of tested animals in 7 Days (ICR mice; [9]): Severe motor dysfunction in three animals was observed 30; Summary of toxic response of tested animals in 7 Days (ICR mice; [10]): Severe motor dysfunction in two animals was observed 30; Weights of Experimental Mice (Mean ± SD) ([1]; Day 4): 20.0 ± 0.7 g; Weights of Experimental Mice (Mean ± SD) ([1]; Day 5): 19.7 ± 0.5 g; Weights of Experimental Mice (Mean ± SD) ([1]; Day 6): 19.2 ± 0.7 g; Weights of Experimental Mice (Mean ± SD) ([1]; Day 7): 18.9 ± 0.8 g; Weights of Experimental Mice (Mean ± SD) ([1]; Day 8): 19.0 ± 1.0 g; Weights of Experimental Mice (Mean ± SD) ([1]; Day 9): 19.4 ± 0.8 g
3 | CNc1cccc2c1C(=O)N(C1CCC(=O)N(CCOC)C1=O)C2=O (stereo not drawn) [Example 2, 4-methylamino-2-(1-(2-methoxyethyl)-2,6-dioxopiperidin-3-yl)isoindolin-1,3-dione] | 6.9 ± 0.2 cm | 66.7% | 20.1 ± 0.8 g | 20.0 ± 0.7 g | 19.8 ± 0.6 g | 20.2 ± 0.8 g | 19.2 ± 0.5 g | 18.6 ± 0.5 g | 22.7 ± 0.6 g | 24.1 ± 0.4 g | 23.2 ± 0.5 g | 24.7 ± 0.2 g | 23.2 ± 0.5 g | 24.7 ± 0.2 g | 24.4 ± 0.2 g | 26.2 ± 0.6 g | 24.6 ± 1.1 g | 28.8 ± 0.5 g | 24.5 ± 1.9 g | 29.2 ± 0.8 g | Summary of toxic response of tested animals in 7 Days (ICR mice; [9]): Abnormality was not observed in 7 days of the test; Summary of toxic response of tested animals in 7 Days (ICR mice; [10]): Slight abnormality of activity was occasionally observed in two; Weights of Experimental Mice (Mean ± SD) ([1]; Day 4): 20.2 ± 0.8 g; Weights of Experimental Mice (Mean ± SD) ([1]; Day 5): 20.0 ± 0.6 g; Weights of Experimental Mice (Mean ± SD) ([1]; Day 6): 18.9 ± 0.6 g; Weights of Experimental Mice (Mean ± SD) ([1]; Day 7): 18.8 ± 0.7 g; Weights of Experimental Mice (Mean ± SD) ([1]; Day 8): 18.8 ± 1.0 g; Weights of Experimental Mice (Mean ± SD) ([1]; Day 9): 19.0 ± 1.1 g
4 | COCCCN1C(=O)CCC(N2C(=O)c3ccc(N)cc3C2=O)C1=O (stereo not drawn) [Example 18, 5-amino-2-(1-(3-methoxypropyl)-2,6-dioxopiperidin-3-yl)isoindolin-1,3-dione] | – | – | – | – | – | – | 18.4 ± 0.7 g | 18.2 ± 0.4 g | 22.5 ± 0.8 g | 23.0 ± 0.7 g | 23.8 ± 1.1 g | 24.1 ± 0.4 g | 24.8 ± 1.5 g | 25.6 ± 0.8 g | 24.8 ± 0.6 g | 28.1 ± 1.1 g | 25.4 ± 0.7 g | 29.0 ± 1.4 g | 25.2 ± 1.1 g | 29.0 ± 1.0 g | –
5 | COCCN1C(=O)CCC(N2C(=O)c3ccc(F)c(N)c3C2=O)C1=O (stereo not drawn) [Example 9, 4-amino-S-fluoro-2-(1-(2-methoxyethyl)-2,6-dioxopiperidin-3-yl)isoindolin-1,3-dione] | – | – | – | – | – | – | – | – | – | – | – | – | – | – | – | – | – | – | – | – | Summary of toxic response of tested animals in 7 Days (ICR mice; mouse, in vivo, po, 1000 mg/kg): Abnormality was not observed in 7 days of the test
6 | COCCN1C(=O)CCC(N2C(=O)c3c(N)ccc(O)c3C2=O)C1=O (stereo not drawn) [Example 10, 4-amino-7-hydroxy-2-(1-(2-methoxyethyl)-2,6-dioxopiperidin-3-yl)isoindolin-1,3-dione] | – | – | – | – | – | – | 19.2 ± 0.5 g | 19.4 ± 0.3 g | 21.9 ± 0.4 g | 24.4 ± 0.6 g | 22.4 ± 0.2 g | 25.5 ± 0.9 g | 22.4 ± 0.2 g | 25.5 ± 0.9 g | 22.9 ± 0.6 g | 26.8 ± 0.9 g | 24.1 ± 1.5 g | 29.2 ± 0.7 g | 24.2 ± 1.8 g | 30.3 ± 0.7 g | Summary of toxic response of tested animals in 7 Days (ICR mice; [9]): Decrease of activity was observed in all the animals within 30; Summary of toxic response of tested animals in 7 Days (ICR mice; [10]): Decrease of activity was observed in all the animals within 30
